Measured values from patent US7071202B2 (SuperGen, Inc., priority 2002, dated 2006).

What was measured:
[1] = tested on: human tumor xenografts; conditions: cited from earlier work
[2] = cited from earlier work
[3] = Moisture sorption/desorption (VTI SGA-100 moisture balance); type: physicochemical; conditions: for hygroscopicity: from moisture sorption data, 5 to 95% RH; for Weight % chg: start, elapsed time 0.0 min, 25 deg C (RH 14.41% Form A, 9.87% Form B)
Source text: The samples were not dried prior to analysis.

[4] = Grinding of Form A, XRPD; type: physicochemical; conditions: ground in an amalgamator for 10 minutes
Source text: The XRPD data for the increased amorphous content material obtained by grinding a crystalline polymorph are plotted in FIG. 29. […] Further grinding is expected to increase the amorphous content and further broaden the XRPD pattern with the limit of the XRPD pattern being so broadened that it cannot be discerned above noise. When the XRPD pattern is broadened to the limit of being indiscernable, the material is no longer a crystalline material having increased amorphous content relative to unground crystallized material, but is a material that is wholly amorphous as defined herein.
The sample was then analyzed using XRPD.

[5] = XRPD after storage in a closed vial at ambient conditions; type: physicochemical; conditions: 31 days
[6] = Dehydration/desolvation under vacuum, XRPD; type: physicochemical
Source text: The characterization of this weight loss as THF solvent is supported by the ^1H NMR data.

CC[C@@]1(O)C(=O)OCc2c1cc1n(c2=O)Cc2cc3c([N+](=O)[O-])cccc3nc2-1 [9-nitrocamptothecin, 9-nitro-20(S)-camptothecin]
growth of human tumor xenografts ([1]; immunodeficient nude mice): inhibited the growth of human tumor xenografts
regression of established human tumor xenografts ([1]; nude mice): induced regression of human tumors

CC[C@@](O)(C(=O)[O-])c1cc2n(c(=O)c1CO)Cc1cc3ccccc3nc1-2.[Na+] [Sodium camptothecin]
side effects in clinical trials ([2]; administered intravenously): unpredictable side effects such as myelosuppression and hemorrhagic cystitis
activity in clinical trials ([2]; solubilized by sodium hydroxide in water, intravenous): found to have antineoplastic activity

CC[C@@]1(O)C(=O)OCc2c1cc1n(c2=O)Cc2cc3c([N+](=O)[O-])cccc3nc2-1 [Form A, 9-nitrocamptothecin]
hysteresis between the hydration and dehydration curves [3]: A small amount of hysteresis
hygroscopicity [3]: not hygroscopic
Weight % chg [3]: 0.0000%
effect of grinding on crystallinity (XRPD) [4]: losing crystallinity after grinding

CC[C@@]1(O)C(=O)OCc2c1cc1n(c2=O)Cc2cc3c([N+](=O)[O-])cccc3nc2-1 [Form B, 9-nitrocamptothecin]
hysteresis between the hydration and dehydration curves [3]: essentially no hysterisis
hygroscopicity [3]: relatively hygroscopic
Weight % chg [3]: 0.0000%
stability of the crystalline form (XRPD pattern vs FIG. 5) [5]: relatively stable

CC[C@@]1(O)C(=O)OCc2c1cc1n(c2=O)Cc2cc3c([N+](=O)[O-])cccc3nc2-1 [Form C, 9-nitrocamptothecin]
form after attempt to desolvate under vacuum [6]: becomes amorphous
